Measured values: patent US6355799B1, “Substituted benzene compounds, process for their preparation, and herbicidal and defoliant compositions containing them” (ISK Americas Incorporated, priority 1997, dated 2002)

Key:
Format in all cases: in vivo
[1] = test system: redroot pigweed (Amaranthus retroflexus, AMARE); test: Pre-emerge test, greenhouse herbicide activity screening; conditions: pre-emerge, 14 days after application, rating scale 0-100
Outline: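 Herbicidal damage is scored 0 (none) to 100 (complete plant death) two weeks after a simulated field spray. Rates span 15–1000 g ai/ha, delivered in acetone at 187 l/ha. For post-emergence treatments, plants have 2–3 leaves and the spray carries 0.25% v/v non-ionic surfactant.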

[2] = test system: barnyardgrass (Echinochloa crus-galli, ECHCG); test: as above; conditions: pre-emerge, 14 days after application, rating scale 0-100
Outline: (§1)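 Visual ratings on a 0-100 scale (0 no damage, 100 all plants dead) were taken at 14 days after treatment. Rates of 15-1000 g ai/ha in acetone, 187 l/ha, were sprayed onto soil one day after planting (pre-emerge) or onto 2-3 leaf plants with 0.25% v/v surfactant (post-emerge).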

[3] = test system: common ragweed (Ambrosia artemisizfolia L., AMBEL); test: as above; conditions: pre-emerge, 14 days after application, rating scale 0-100
Outline: as §1

[4] = test system: green foxtail (Setaria viridis, SETVI); test: as above; conditions: pre-emerge, 14 days after application, rating scale 0-100
Outline: as §1

[5] = test system: ivyleaf morningglory (Ipomoea hederacea, IPOHE); test: as above; conditions: pre-emerge, 14 days after application, rating scale 0-100
Outline: as §1

[6] = test system: johnsongrass (Sorghum halepense, SORHA); test: as above; conditions: pre-emerge, 14 days after application, rating scale 0-100
Outline: as §1

[7] = test system: lambsquarters (Chenopodium album, CHEAL); test: as above; conditions: pre-emerge, 14 days after application, rating scale 0-100
Outline: as §1

[8] = test system: large crabgrass (Digitaria sanguinalis, DIGSA); test: as above; conditions: pre-emerge, 14 days after application, rating scale 0-100
Outline: as §1

[9] = test system: sicklepod (Cassia obtusifolia, CASOB); test: as above; conditions: pre-emerge, 14 days after application, rating scale 0-100
Outline: as §1

[10] = test system: velvetleaf (Abutilon theophrasti, ABUTH); test: as above; conditions: pre-emerge, 14 days after application, rating scale 0-100
Outline: as §1

[11] = test system: field corn (Zea mays L., var. Dekalb 535, CORN); test: Pre-emerge test, crop safety; conditions: pre-emerge, 14 days after application, rating scale 0-100
Outline: (§2)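 Compounds in acetone were track-sprayed at 187 l/ha, 15–1000 g ai/ha, onto sandy loam pots. Pre-emerge seeds were sown one day before spraying, with surface watering afterwards. Post-emerge plants were at the 2–3 leaf stage and sprayed with 0.25% v/v non-ionic surfactant. Injury was rated 0–100 at 14 days.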

[12] = test system: upland rice (Oryza sp., var. Tebonnet, RICE); test: Pre-emerge test, crop safety; conditions: pre-emerge, 14 days after application, rating scale 0-100
Outline: as §2

[13] = test system: barnyardgrass (Echinochloa crus-galli, ECHCG); test: Post-emerge test, greenhouse herbicide activity screening; conditions: rating scale 0-100 (0 no damage, 100 complete death), 14 days after application
Outline: (§3)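 Applied at 15–1000 g ai/ha from acetone in 187 l/ha spray volume. Post-emergence applications included 0.25% v/v non-ionic surfactant and reached plants sown 8–21 days before. Pre-emergence applications were incorporated by surface watering. Efficacy or crop damage was rated on a 0–100 scale after 14 days.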

[14] = test system: green foxtail (Setaria viridis, SETVI); test: as above; conditions: rating scale 0-100 (0 no damage, 100 complete death), 14 days after application
Outline: as §3

[15] = test system: ivyleaf morningglory (Ipomoea hederacea, IPOHE); test: as above; conditions: rating scale 0-100 (0 no damage, 100 complete death), 14 days after application
Outline: as §3

[16] = test system: johnsongrass (Sorghum halepense, SORHA); test: as above; conditions: rating scale 0-100 (0 no damage, 100 complete death), 14 days after application
Outline: as §3

[17] = test system: lambsquarters (Chenopodium album, CHEAL); test: as above; conditions: rating scale 0-100 (0 no damage, 100 complete death), 14 days after application
Outline: as §3

[18] = test system: large crabgrass (Digitaria sanguinalis, DIGSA); test: as above; conditions: rating scale 0-100 (0 no damage, 100 complete death), 14 days after application
Outline: as §3

[19] = test system: redroot pigweed (Amaranthus retroflexus, AMARE); test: as above; conditions: rating scale 0-100 (0 no damage, 100 complete death), 14 days after application
Outline: as §3

[20] = test system: sicklepod (Cassia obtusifolia, CASOB); test: as above; conditions: rating scale 0-100 (0 no damage, 100 complete death), 14 days after application
Outline: as §3

[21] = test system: velvetleaf (Abutilon theophrasti, ABUTH); test: as above; conditions: rating scale 0-100 (0 no damage, 100 complete death), 14 days after application
Outline: as §3

[22] = test system: field corn (Zea mays L., var. Dekalb 535, CORN); test: Post-emerge test, crop safety; conditions: rating scale 0-100 (0 no damage, 100 complete death), 14 days after application
Outline: as §1

[23] = test system: upland rice (Oryza sp., var. Tebonnet, RICE); test: Post-emerge test, crop safety; conditions: rating scale 0-100 (0 no damage, 100 complete death), 14 days after application
Outline: as §1

CCOC(=O)C(Cl)Cc1c(C)c(Cl)cc(F)c1-n1c(=O)cc(C(F)(F)F)n(C)c1=O (stereo not shown) [14-54]
phytotoxicity rating AMARE ([1]; 63 g ai/ha): 20 | phytotoxicity rating AMARE ([1]; 250 g ai/ha): 85 | phytotoxicity rating ECHCG ([2]; 63 g ai/ha): 0 | phytotoxicity rating ECHCG ([2]; 250 g ai/ha): 0 | phytotoxicity rating AMBEL ([3]; 63 g ai/ha): 0 | phytotoxicity rating AMBEL ([3]; 250 g ai/ha): 0 | phytotoxicity rating SETVI ([4]; 63 g ai/ha): 20 | phytotoxicity rating SETVI ([4]; 250 g ai/ha): 80 | phytotoxicity rating IPOHE ([5]; 63 g ai/ha): 0 | phytotoxicity rating IPOHE ([5]; 250 g ai/ha): 40 | phytotoxicity rating SORHA ([6]; 63 g ai/ha): 0 | phytotoxicity rating SORHA ([6]; 250 g ai/ha): 30 | phytotoxicity rating CHEAL ([7]; 63 g ai/ha): 10 | phytotoxicity rating CHEAL ([7]; 250 g ai/ha): 100 | phytotoxicity rating DIGSA ([8]; 63 g ai/ha): 0 | phytotoxicity rating DIGSA ([8]; 250 g ai/ha): 30 | phytotoxicity rating CASOB ([9]; 63 g ai/ha): 0 | phytotoxicity rating CASOB ([9]; 250 g ai/ha): 10 | phytotoxicity rating ABUTH ([10]; 63 g ai/ha): 0 | phytotoxicity rating ABUTH ([10]; 250 g ai/ha): 70 | phytotoxicity rating CORN ([11]; 63 g ai/ha): 0 | phytotoxicity rating CORN ([11]; 250 g ai/ha): 0 | phytotoxicity rating RICE ([12]; 63 g ai/ha): 0 | phytotoxicity rating RICE ([12]; 250 g ai/ha): 15 | Post-emerge Herbicidal Activity, phytotoxicity rating ECHCG ([13]; Rate 63 g ai/ha): 30 | Post-emerge Herbicidal Activity, phytotoxicity rating ECHCG ([13]; Rate 250 g ai/ha): 30 | Post-emerge Herbicidal Activity, phytotoxicity rating SETVI ([14]; Rate 63 g ai/ha): 10 | Post-emerge Herbicidal Activity, phytotoxicity rating SETVI ([14]; Rate 250 g ai/ha): 10 | Post-emerge Herbicidal Activity, phytotoxicity rating IPOHE ([15]; Rate 63 g ai/ha): 30 | Post-emerge Herbicidal Activity, phytotoxicity rating IPOHE ([15]; Rate 250 g ai/ha): 80 | Post-emerge Herbicidal Activity, phytotoxicity rating SORHA ([16]; Rate 63 g ai/ha): 0 | Post-emerge Herbicidal Activity, phytotoxicity rating SORHA ([16]; Rate 250 g ai/ha): 0 | Post-emerge Herbicidal Activity, phytotoxicity rating CHEAL ([17]; Rate 63 g ai/ha): 20 | Post-emerge Herbicidal Activity, phytotoxicity rating CHEAL ([17]; Rate 250 g ai/ha): 60 | Post-emerge Herbicidal Activity, phytotoxicity rating DIGSA ([18]; Rate 63 g ai/ha): 0 | Post-emerge Herbicidal Activity, phytotoxicity rating DIGSA ([18]; Rate 250 g ai/ha): 10 | Post-emerge Herbicidal Activity, phytotoxicity rating AMARE ([19]; Rate 63 g ai/ha): 40 | Post-emerge Herbicidal Activity, phytotoxicity rating AMARE ([19]; Rate 250 g ai/ha): 50 | Post-emerge Herbicidal Activity, phytotoxicity rating CASOB ([20]; Rate 63 g ai/ha): 0 | Post-emerge Herbicidal Activity, phytotoxicity rating CASOB ([20]; Rate 250 g ai/ha): 30 | Post-emerge Herbicidal Activity, phytotoxicity rating ABUTH ([21]; Rate 63 g ai/ha): 60 | Post-emerge Herbicidal Activity, phytotoxicity rating ABUTH ([21]; Rate 250 g ai/ha): 80 | Post-emerge phytotoxicity rating CORN (crop damage) ([22]; Rate 63 g ai/ha): 5 | Post-emerge phytotoxicity rating CORN (crop damage) ([22]; Rate 250 g ai/ha): 15 | Post-emerge phytotoxicity rating RICE (crop damage) ([23]; Rate 63 g ai/ha): 10 | Post-emerge phytotoxicity rating RICE (crop damage) ([23]; Rate 250 g ai/ha): 10
